# Experimental data: US10851096B2, “Aryl and heteroaryl amides for use as anti-proliferative, anti-thrombotic, and anti-viral agents” (Rutgers, The State University of New Jersey, priority 2016, dated 2020)
# pIC50: −log10 of the molar value.
# Molecular target: T1, hAxl/IFN-γR1 (Homo sapiens, UniProt P30530)
# T1 construct: containing human Axl extracellular domains and transmembrane and intracellular domains of human IFN-γR1; human IFN-γR1 transmembrane and intracellular domains (fusion partner); expressed in transfected cells
# T1 sequence (P30530 26-451 limits assumed): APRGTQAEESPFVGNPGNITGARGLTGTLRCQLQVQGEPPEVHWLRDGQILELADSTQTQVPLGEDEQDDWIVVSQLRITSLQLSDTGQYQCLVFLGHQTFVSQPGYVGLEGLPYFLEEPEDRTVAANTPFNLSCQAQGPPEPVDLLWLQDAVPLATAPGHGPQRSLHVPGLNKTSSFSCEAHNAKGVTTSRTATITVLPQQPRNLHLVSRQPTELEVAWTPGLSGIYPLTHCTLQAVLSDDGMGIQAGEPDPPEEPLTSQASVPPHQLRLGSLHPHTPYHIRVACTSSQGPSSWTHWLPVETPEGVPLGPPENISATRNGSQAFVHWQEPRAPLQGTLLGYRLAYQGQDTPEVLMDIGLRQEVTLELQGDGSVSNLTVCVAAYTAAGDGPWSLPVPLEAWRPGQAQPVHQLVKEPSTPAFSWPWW
# Assay: hAxl/IFN-γR1 CHO reporter cell line assay, Gas6-induced activation (pSTAT1 immunoblot)
# Assay type: cell-based
# Conditions: not given
# Protocol: Stable HEK 293 cells secreting human Gas6 (clone 7.4.1) were allowed to achieve 70% confluence in a 10-cm plate. The complete medium with 10% FBS was then changed into serum free media in the presence of 10 µg/mL vitamin K1 (Phytonadione injectable emulsion from Hospira). After 72 hours, the Gas6 conditioned medium was collected, and validated for the presence of Gas6 and γ-carboxylation (by immunoblot) and activity of Gas6 (via activation of pSTAT1 in hAxl/γR1 cells).
# Stable hAxl/IFN-γR1 CHO reporter cell lines (containing human Axl extracellular domains and transmembrane and intracellular domains of human IFN-γR1) were serum starved for 5 hrs±small molecule inhibitors and then stimulated with human Gas6 conditioned media±small molecule inhibitors for 30 minutes. For H1299 human non-small cell lung carcinoma and MDA-MB-231 human breast adenocarcinoma cell lines, the cells were serum starved overnight±small molecule inhibitors and stimulated with human Gas6 conditioned media±small molecule inhibitors for 30 minutes. Whole cell lysates of hAxl/IFN-γR1, H1299 and MDA-MB-231 cells were prepared using HNTG buffer (20 mM HEPES, pH 7.5, 150 mM NaCl, 10% glycerol, 1% Triton X-100, 1 mM PMSF, 1 mM Na3VO4, 10 mM Na2MoO4, 1 mM EDTA, 10 mM NaF and 20 μg/mL aprotinin). The resulting lysates were resolved on SDS-PAGE gel and immunoblotted with respective antibodies.
# Immunoblot data were obtained within a linear range of exposure, and intensities were quantified by ImageJ. The levels of hAxl/IFN-γR1 cells lines activation were measured by pSTAT1 whereas the levels of H1299 and MDA-MB-231 cell lines activation were measured by pAxl signal intensities. Blots were normalized to intensities of respective β-actin or GAPDH protein loading controls. The levels of pSTAT1 or pAxl activation induced by Gas6±small molecule inhibitors were plotted as a fold of enhancement or reduction over intensities induced by Gas6 alone.
row,SMILES,remaining activity at 10 µM
1,Cc1cc(CSc2ccccc2C(=O)N2CCN(Cc3ccc4c(c3)CCO4)CC2)no1 [1A],60%
2,Cc1cc(CSc2ccccc2C(=O)N2CCN(CC(=O)N3CCOCC3)CC2)no1 [1B],70%
3,Cc1cc(CSc2ccccc2C(=O)N2CCN(Cc3ccc(C#N)cc3)CC2)no1 [1C],60%
4,Cc1cc(CSc2ccccc2C(=O)N2CCN(Cc3ccncc3)CC2)no1 [1D],50%
5,Cc1nc(CSc2ccccc2C(=O)N2CCN(Cc3ccccc3)CC2)cs1 [1E],60%
6,Cc1cc(CSc2ccccc2C(=O)N2CCN(Cc3nc4ccccc4s3)CC2)no1 [1F],20%
7,O=C(c1ccccc1SCc1ccsc1)N1CCN(Cc2ccncc2)CC1 [1H],20%
8,Cc1cc(CSc2ncccc2C(=O)N2CCN(CC(=O)Nc3cccc(C)c3C)CC2)no1 [1K],80%
9,Cc1cc(CSc2ncccc2C(=O)N2CCN(CC(=O)Nc3ccccc3Cl)CC2)no1 [1L],20%
10,Cc1noc(C)c1CSc1ccccc1C(=O)N1CCN(Cc2cccs2)CC1 [1M],20%
11,Cc1cc(CSc2ccccc2C(=O)N2CCN(CC(=O)Nc3ccccc3Cl)CC2)no1 [1N],30%
12,O=C(c1ccccc1SCc1cccs1)N1CCN(Cc2ccncc2)CC1 [1O],40%
13,Cc1nc(COc2ccccc2C(=O)N2CCN(Cc3ccncc3)CC2)cs1 [1P],100%
14,Cc1cc(CSc2ccccc2C(=O)NCCNc2ccccc2[N+](=O)[O-])on1 [1R],40%
15,Cc1cc(CSc2ncccc2C(=O)NCCNc2ccc(C(F)(F)F)cc2[N+](=O)[O-])on1 [Compound 2],57%
16,Cc1cc(CSc2ncncc2C(=O)NCCNc2ccc(C(F)(F)F)cc2[N+](=O)[O-])on1 [Compound 3],26%
17,Cc1cc(CSc2nc(C)cc(C)c2C(=O)NCCNc2ccc(C(F)(F)F)cc2[N+](=O)[O-])on1 [Compound 4],83%
18,Cc1cc(CSc2ccccc2C(=O)NCCNc2nc3ccccc3s2)on1 [Compound 5],13%
19,Cc1cc(CSc2ccccc2C(=O)NCCNc2ccc(C(F)(F)F)cn2)on1 [Compound 6],6%
20,Cc1cc(CSc2ccccc2C(=O)NCCNc2nc3cc(C(F)(F)F)ccc3s2)on1 [Compound 7],33%
21,Cc1cc(CSc2ccccc2C(=O)NCCNc2ccc(C(F)(F)F)cc2C#N)on1 [Compound 8],9%

row,SMILES,remaining activity at 10 µM
1,Cc1cc(CSc2ccccc2C(=O)NCCNc2nc3ccccc3o2)on1 [Compound 9],20%
2,Cc1cc(CSc2ccccc2C(=O)NCCNc2ccc(F)cc2C#N)on1 [Compound 10],14%
3,Cc1cc(CSc2ccccc2C(=O)NCCNc2ccc(C(F)(F)F)c(C#N)c2)on1 [Compound 11],29%
4,Cc1cc(CSc2ccccc2C(=O)NCCNc2ccc(C#N)cc2)on1 [Compound 12],16%
5,Cc1cc(CSc2ccccc2C(=O)NCCNc2nc(C(F)(F)F)cs2)on1 [Compound 13],6%
6,Cc1cc(CSc2ccccc2C(=O)N2CCN(CC(=O)Nc3ccc(F)cc3)CC2)no1 [Compound 14],110%
7,Cc1cc(CSc2ccccc2C(=O)N2CCN(Cc3nc4ccccc4[nH]3)CC2)no1 [Compound 15],141%
8,Cc1cc(CSc2ccccc2C(=O)N2CCN(CC(=O)Nc3ccccc3F)CC2)no1 [Compound 16],109%
9,Cc1cc(CSc2ccccc2C(=O)N2CCN(CC(=O)Nc3ccc(Cl)cc3)CC2)no1 [Compound 17],79%
10,Cc1cc(CSc2ccccc2C(=O)N2CCN(CC(=O)Nc3ccc(Cl)cn3)CC2)no1 [Compound 18],46%
11,Cc1cc(CSc2ccccc2C(=O)N2CCN(Cc3nc4ccccc4o3)CC2)no1 [Compound 19],41%
12,Cc1cc(CSc2ccccc2C(=O)N2CCN(Cc3nc4cccc(Cl)c4o3)CC2)no1 [Compound 20],55%
13,Cc1cc(CSc2ccccc2C(=O)N2CCN(Cc3nc4cc(Cl)ccc4s3)CC2)no1 [Compound 21],8%
14,CCN(C(=O)CN1CCN(C(=O)c2ccccc2SCc2cc(C)on2)CC1)c1ccc(F)cc1 [Compound 22],108%
15,Cc1cc(CSc2ccccc2C(=O)N2CCN(Cc3nc4cc(C(F)(F)F)ccc4s3)CC2)no1 [Compound 23],8%
16,COc1ccc2nc(CN3CCN(C(=O)c4ccccc4SCc4cc(C)on4)CC3)sc2c1 [Compound 24],90%
17,Cc1ccc(NC(=O)CN2CCN(C(=O)c3ccccc3SCc3cc(C)on3)CC2)c(Cl)c1 [Compound 25],27%
18,Cc1cc(CSc2ccccc2C(=O)N2CCN(CC(=O)NCc3ccc(Cl)cc3)CC2)no1 [Compound 26],54%
19,Cc1cc(CSc2ccccc2C(=O)NCCNc2ncccn2)on1 [Compound 27],16%
20,Cc1cc(CSc2ccccc2C(=O)NCCNc2ncc(C(F)(F)F)cc2Cl)on1 [Compound 28],6%

# Molecular target: T2, Tyro3 (Homo sapiens, UniProt Q06418)
# T2 sequence (Q06418 41-890): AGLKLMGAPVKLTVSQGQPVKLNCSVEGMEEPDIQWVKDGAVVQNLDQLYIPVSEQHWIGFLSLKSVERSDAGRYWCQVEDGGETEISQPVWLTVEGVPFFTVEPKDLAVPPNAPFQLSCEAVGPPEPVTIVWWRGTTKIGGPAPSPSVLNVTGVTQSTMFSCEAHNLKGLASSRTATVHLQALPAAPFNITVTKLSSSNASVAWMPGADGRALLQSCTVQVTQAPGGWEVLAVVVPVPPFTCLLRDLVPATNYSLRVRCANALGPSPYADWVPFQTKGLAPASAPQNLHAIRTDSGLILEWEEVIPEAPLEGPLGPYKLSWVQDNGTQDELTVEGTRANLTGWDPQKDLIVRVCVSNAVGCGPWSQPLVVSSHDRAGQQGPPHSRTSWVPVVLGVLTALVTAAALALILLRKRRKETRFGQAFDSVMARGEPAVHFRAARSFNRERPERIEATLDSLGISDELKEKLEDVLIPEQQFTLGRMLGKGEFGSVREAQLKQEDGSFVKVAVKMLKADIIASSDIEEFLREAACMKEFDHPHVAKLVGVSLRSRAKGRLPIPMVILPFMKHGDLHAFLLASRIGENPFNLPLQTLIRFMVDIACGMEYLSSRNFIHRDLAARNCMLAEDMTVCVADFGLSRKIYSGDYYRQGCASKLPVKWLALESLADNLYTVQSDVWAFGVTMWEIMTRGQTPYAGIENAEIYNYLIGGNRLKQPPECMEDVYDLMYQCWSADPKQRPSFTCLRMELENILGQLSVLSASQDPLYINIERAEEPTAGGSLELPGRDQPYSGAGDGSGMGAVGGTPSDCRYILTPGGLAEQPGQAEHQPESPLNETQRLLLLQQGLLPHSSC
# Assay: not given
# Conditions: cited from earlier work
row,SMILES,pIC50
1,Nc1nc(Nc2ccc3c(c2)CC[C@@H](N2CCCC2)CC3)nn1-c1cc2c(nn1)-c1ccccc1CCC2 [BGB324],5.85
